Like-named read-outs stand apart in the source and are kept apart here.
Columns and labels:
SR = test: NCI-60 cytotoxicity screen; assay type: cell-based
EKVX = test: NCI-60 cytotoxicity screen; assay type: cell-based
HOP-62 = test: NCI-60 cytotoxicity screen; assay type: cell-based
HOP-92 = test: NCI-60 cytotoxicity screen; assay type: cell-based
NCI-H23 [1] = test: NCI-60 cytotoxicity screen; assay type: cell-based
SNB-75 = test: NCI-60 cytotoxicity screen; assay type: cell-based
M14 = test: NCI-60 cytotoxicity screen; assay type: cell-based
OVCAR-4 [2] = test: NCI-60 cytotoxicity screen; assay type: cell-based
SK-OV-3 [3] = test: NCI-60 cytotoxicity screen; assay type: cell-based
A498 = test: NCI-60 cytotoxicity screen; assay type: cell-based
SN12C = test: NCI-60 cytotoxicity screen; assay type: cell-based
DU-145 [4] = test: NCI-60 cytotoxicity screen; assay type: cell-based
HS 578T = test: NCI-60 cytotoxicity screen; assay type: cell-based; conditions: Homo sapiens
T-47D = test: NCI-60 cytotoxicity screen; assay type: cell-based
HBC-4 = test: JFCR-39 cytotoxicity screen; assay type: cell-based
HBC-5 = test: JFCR-39 cytotoxicity screen; assay type: cell-based
MCF-7 = test: JFCR-39 cytotoxicity screen; assay type: cell-based
U251 = test: JFCR-39 cytotoxicity screen; assay type: cell-based
SF-295 = test: JFCR-39 cytotoxicity screen; assay type: cell-based
HCT-15 = test: JFCR-39 cytotoxicity screen; assay type: cell-based
NCI-H23 [5] = test: JFCR-39 cytotoxicity screen; assay type: cell-based
A549 = test: JFCR-39 cytotoxicity screen; assay type: cell-based
DMS114 = test: JFCR-39 cytotoxicity screen; assay type: cell-based
OVCAR-4 [6] = test: JFCR-39 cytotoxicity screen; assay type: cell-based
SK-OV-3 [7] = test: JFCR-39 cytotoxicity screen; assay type: cell-based
MKN7 = test: JFCR-39 cytotoxicity screen; assay type: cell-based
DU-145 [8] = test: JFCR-39 cytotoxicity screen; assay type: cell-based
PC-3 = test: JFCR-39 cytotoxicity screen; assay type: cell-based
[9] = tested on: NF-κB p65 subunit in OVCAR-3 cells; test: Western blotting of nuclear and cytosolic fractions; assay type: cell-based, human; conditions: OVCAR-3 nuclear fraction
Method: Treated cells were fractionated into nuclear and cytosolic fractions using the Nuclear/Cytosol fractionation kit (BioVision), separated by electrophoresis in SDS-PAGE gels and transferred to Amersham Hybond-P PVDF Membranes. Membranes were probed with either anti-NF-κB p65 rabbit monoclonal primary antibody [E379] Abcam # ab32536, anti-TATA binding protein (TBP) mouse antibody (1TBP18), or anti-beta Tubulin rabbit antibody [NB600-936]. After washing, membranes were incubated with either goat anti-rabbit IgG H&L (HRP) (ab6721), or rabbit anti-mouse IgG H&L (HRP) (ab6728) secondary antibodies. Membranes were developed using the Immobilon Western chemiluminescent HRP substrate kit. Protein bands were normalized to either the beta Tubulin or TBP bands and quantified using ImageJ software.

[10] = tested on: normal cardiac myoblast H9c2 cells; conditions: rat
Method: Briefly, 96 well microtiter plates were inoculated with the specified human cancer cell lines in RPMI 1640 medium containing 5% fetal bovine serum and 2 mM L-glutamine at the specified plating densities. The microtiter plates were incubated at 37°C, 5% CO2, and 100% relative humidity for 24 h. The test compounds were solubilized in DMSO at 400-fold the desired final maximum test concentration, diluted with complete medium containing gentamicin and added to the wells of the microtiter plates to achieve the final desired compound concentration, then incubated for an additional 48 h at the same incubation conditions. The media were removed, the cells were fixed then stained with sulforhodamine B and the unbound dye was removed by washing with acetic acid. The bound dye was resolubilized with trizma base and the absorbance at 515 nm was measured. Cells were stained with the WST-1 cell proliferation reagent instead of sulforhodamine B in some experiments and absorbance were measured at 440 nm. The three dose response parameters GI50, TGI and LC50 were calculated for each experimental compound as follows [48]: For values where Ti ≥ Tz the formula is [ (Ti-Tz) / (C-Tz)] x 100 For values where Ti < Tz the formula is [ (Ti-Tz) / Tz] x 100 Where Ti is the absorbance of the solubilized Sulforhodamine B (SRB) (representing the number of cells) of the five different concentrations of the compound used in the test, Tz is the absorbance of the SRB at time zero, and C is the absorbance of the SRB of the control growth.

[11] = Homo sapiens, Fig 7, read-out: mean log10 of the GI50 values (converted)
[12] = Homo sapiens, five-dose, read-out: GI50
[13] = Homo sapiens, five-dose, read-out: LC50 (the source's name)
[14] = Homo sapiens, read-out: LC50 (the source's name)

O=C1c2ccccc2C(=O)c2c1cc(Cl)c1nsnc21 [NSC757963]
GI50 (SR; [11]): 1.82 µM
GI50 (SR; [12]): 2.64 µM
CC50 (SR; [13]): > 100 µM
TGI (SR; five-dose): >100 µM
GI50 (EKVX; [11]): 10.5 µM
GI50 (EKVX; [12]): 11 µM
CC50 (EKVX; [13]): 48.7 µM
TGI (EKVX; five-dose): 23.2 µM
GI50 (HOP-62; [11]): 3.89 µM
GI50 (HOP-62; [12]): 4.95 µM
CC50 (HOP-62; [13]): 43.3 µM
TGI (HOP-62; five-dose): 17.3 µM
GI50 (HOP-92; [11]): 1.45 µM
GI50 (HOP-92; [12]): 1.43 µM
CC50 (HOP-92; [13]): 7.84 µM
TGI (HOP-92; five-dose): 3.34 µM
GI50 (NCI-H23 [1]; [11]): 3.63 µM
GI50 (NCI-H23 [1]; [12]): 3.62 µM
CC50 (NCI-H23 [1]; [13]): 74.6 µM
TGI (NCI-H23 [1]; five-dose): 17.2 µM
GI50 (SNB-75; [11]): 1.91 µM
GI50 (SNB-75; [12]): 2.17 µM
CC50 (SNB-75; [13]): 69.1 µM
TGI (SNB-75; five-dose): 6.89 µM
GI50 (M14; [11]): 15.1 µM
GI50 (M14; [12]): 17 µM
CC50 (M14; [13]): 59.7 µM
TGI (M14; five-dose): 31.9 µM
GI50 (OVCAR-4 [2]; [11]): 1.66 µM
GI50 (OVCAR-4 [2]; [12]): 1.46 µM
CC50 (OVCAR-4 [2]; [13]): 5.5 µM
TGI (OVCAR-4 [2]; five-dose): 2.83 µM
GI50 (SK-OV-3 [3]; [11]): 13.2 µM
GI50 (SK-OV-3 [3]; [12]): 17.8 µM
CC50 (SK-OV-3 [3]; [13]): 58 µM
TGI (SK-OV-3 [3]; five-dose): 32.1 µM
GI50 (A498; [11]): 85.1 µM
GI50 (A498; [12]): 72.8 µM
CC50 (A498; [13]): > 100 µM
TGI (A498; five-dose): >100 µM
GI50 (SN12C; [11]): 2.29 µM
GI50 (SN12C; [12]): 3.27 µM
CC50 (SN12C; [13]): 36.1 µM
TGI (SN12C; five-dose): 13.1 µM
GI50 (DU-145 [4]; [11]): 14.1 µM
GI50 (DU-145 [4]; [12]): 14.2 µM
CC50 (DU-145 [4]; [13]): 52.2 µM
TGI (DU-145 [4]; five-dose): 27.2 µM
GI50 (HS 578T; Hs-578T, HS578T, Fig 7, read-out: mean log10 of the GI50 values (converted)): 2.51 µM
GI50 (HS 578T; HS 578T, five-dose, read-out: GI50): 2.38 µM
CC50 (HS 578T; HS 578T, five-dose, read-out: LC50 (the source's name)): > 100 µM
GI50 (T-47D; Homo sapiens, T47D, Fig 7, read-out: mean log10 of the GI50 values (converted)): 0.912 µM
GI50 (T-47D; Homo sapiens, T47D, five-dose, read-out: GI50): 1.97 µM
CC50 (T-47D; Homo sapiens, T47D, five-dose, read-out: LC50 (the source's name)): > 100 µM
TGI (T-47D; five-dose): 4.56 µM
TGI (HBC-4): 3.1 µM
GI50 (HBC-4; Homo sapiens, HBC4): 1.7 µM
CC50 (HBC-4; Homo sapiens, HBC4, read-out: LC50 (the source's name)): 5.6 µM
TGI (HBC-5): 4.1 µM
GI50 (HBC-5; Homo sapiens, HBC5): 2.1 µM
CC50 (HBC-5; Homo sapiens, HBC5, read-out: LC50 (the source's name)): 8.3 µM
TGI (MCF-7): 3.9 µM
GI50 (MCF-7; Homo sapiens, MCF7): 1.8 µM
CC50 (MCF-7; Homo sapiens, MCF7, read-out: LC50 (the source's name)): 8 µM
TGI (U251): 3.9 µM
GI50 (U251; Homo sapiens, U-251): 1.9 µM
CC50 (U251; Homo sapiens, U-251, read-out: LC50 (the source's name)): 8.1 µM
TGI (SF-295): 3.5 µM
GI50 (SF-295; Homo sapiens): 1.9 µM
CC50 (SF-295; [14]): 6.5 µM
TGI (HCT-15): 3.9 µM
GI50 (HCT-15; Homo sapiens): 1.9 µM
CC50 (HCT-15; [14]): 7.9 µM
TGI (NCI-H23 [5]): 4.1 µM
GI50 (NCI-H23 [5]; Homo sapiens): 1.9 µM
CC50 (NCI-H23 [5]; [14]): 8.7 µM
TGI (A549): 43.0 µM
GI50 (A549; Homo sapiens): 20 µM
CC50 (A549; [14]): 95 µM
TGI (DMS114): 2.5 µM
GI50 (DMS114; Homo sapiens, DMS-114): 1 µM
CC50 (DMS114; Homo sapiens, DMS-114, read-out: LC50 (the source's name)): 6.1 µM
TGI (OVCAR-4 [6]): 3.0 µM
GI50 (OVCAR-4 [6]; Homo sapiens): 1.6 µM
CC50 (OVCAR-4 [6]; [14]): 5.6 µM
TGI (SK-OV-3 [7]): 14.0 µM
GI50 (SK-OV-3 [7]; Homo sapiens): 3.2 µM
CC50 (SK-OV-3 [7]; [14]): 38 µM
TGI (MKN7): 3.6 µM
GI50 (MKN7; Homo sapiens, MKN-7): 1.7 µM
CC50 (MKN7; Homo sapiens, MKN-7, read-out: LC50 (the source's name)): 7.4 µM
TGI (DU-145 [8]): 6.3 µM
GI50 (DU-145 [8]; Homo sapiens): 2.5 µM
CC50 (DU-145 [8]; [14]): 23 µM
TGI (PC-3): 3.2 µM
GI50 (PC-3; Homo sapiens): 1.6 µM
CC50 (PC-3; [14]): 6.5 µM
dose of almost complete inhibition of nuclear NF-κB p65 expression [9]: 2.4 µM
cytotoxicity towards normal cardiac myoblast H9c2 cells [10]: significantly less cytotoxic effects on H9c2 cells at higher doses than doxorubicin
